The source of these data is article PMC11547513, “Design, Synthesis and Biological Activity Evaluation of β-Carboline Derivatives Containing Nitrogen Heterocycles” (Molecules, 2024).

Like-named read-outs stand apart in the source and are kept apart here.

Data set [1] relates to PC-3 (human prostate cancer cell). Nature of the data set: MTT assay, in vitro cytotoxicity on PC-3. In general terms: Tetrazolium assays rely on reduction of a dye to a coloured formazan, in cell work by metabolically active cells.
Description: (§5) Cells were purchased from the Cell Bank of the Chinese Academy of Sciences (Kunming, China).
The subject of data set [2] is A549 (human lung cancer cell). Nature of the data set: MTT assay, in vitro cytotoxicity on A549. To be noted: for IC50: A549, read-out: IC50 (Mean ± S.D.), A549.
Description: as §5
The test system of data set [3] is K562 (human chronic myeloid leukemia cell). The data set can be described thus: MTT assay, in vitro cytotoxicity on K562. To be noted: Homo sapiens; for inhibition at 10 µM: K562, read-out: Inhibitory Activity/% at 10 μM, K562.
Description: as §5
The subject of data set [4] is T47D (human breast cancer cell). Nature of the data set: MTT assay, in vitro cytotoxicity on T47D. To be noted: for IC50: read-out: IC50 (Mean ± S.D.), T47D.
Description: as §5
For data set [5], the system named is Hek-293T (human embryonic kidney cells). Nature of the data set: MTT assay, in vitro cytotoxicity on normal Hek-293T. To be noted: read-out: Inhibitory Activity/% at 10 μM, Hek-293T.
Description: as §5
Data set [6] is described as follows: Observation of water solubility / precipitation during the cell experiments. To be noted: during antitumor activity measurement.
Data set [7] has as its system PC-3 cells. The data set can be described thus: Wound healing assay. Format: cell-based, human. To be noted: 30 μM, 24 h; control group 46.41%. As for the experimental part:
Given that cell migration plays a pivotal role in tumor cell invasion, to further validate the impact of compound 8q on PC-3 cell motility, a wound healing assay was conducted. […] These findings underscore the potent inhibitory effect of compound 8q on the motility of PC-3 cells. […]
(§1) a wound healing assay was performed using the method we previously reported1. In short, PC-3 cells were seeded in a six-well plate at a density of 10 × 105 and incubated at a constant temperature of 37 ℃ and 5% CO2 for 24 h. Then the pipette tip was used to create a uniform wound on the surface of cells. Subsequently, after cleaning twice with PBS, the scratch healing of the 8q treatment group and the positive drug treatment […]
(§2) was used to measure and quantify cell migration. […]

Data set [8] relates to PC-3 cells. The data set can be described thus: Annexin V-FITC/PI apoptosis, flow cytometry. The class given is cell-based, human. To be noted: 30 μM. An excerpt:
(§3) Apoptosis is an important target for antitumor therapy. To explore the antitumor mechanism of compound 8q, cell apoptosis was detected using flow cytometry. […] Moreover, reactive oxygen species (ROS) play a significant role in cell growth, differentiation and apoptosis. Excessive ROS can cause oxidative damage and lead to cell apoptosis. […]
2.3.The effect of compound 8q on cell apoptosis
We used Annexin V-FITC/ PI double staining to evaluate cellular apoptosis via flow cytometry to figure out if apoptosis participates in the inhibition of cell growth.
PC-3 cells were seeded in a six-well plate at a density of 3 × 105, and cultured at 37 ℃ and 5% CO2 for 24 h before adding 10 μM. 20 μM and 30 μM compound 8q and 30 μM Harmine to each well. After 48 h, the cells were collected and stained and incubated flowing the manufacturer ’s protocol of the Annexin V-FITC/PI Apoptosis Detection Kit (Solarbio, Beijing, China). After completion, the cells were immediately detected on the Flow Cytometry (Solarbio, Beijing, China). The experimental results were processed using Flow Jo and Prism 7.04 software. […]
(Flow cytometry measures light scatter and fluorescence of single cells or particles in a stream.)

Data set [9] has as its system PC-3 cells. Nature of the data set: Intracellular ROS assay (DCFH-DA, flow cytometry). Format: cell-based, human. To be noted: 30 μM, 24 h; negative control MFI 19.8. As to the method: as §3, §1, §2
PC-3 cells were seeded in a six-well plate at a density of 3 × 105, and cultured at 37 ℃ and 5% CO2 for 24 h before adding 10 μM. […] After completion, the cells were immediately detected on the Flow Cytometry (Solarbio, Beijing, China). […]
at 37 ° C for 20 min. Subsequently, the staining solution was wash off with basic culture medium and detected the fluorescence intensity using the flow cytometer. The data was analyzed and obtained through Flow Jo and Prism 7.04 software. […]
(§4) The distribution of cycles was analyzed by Flow Jo and Prism 7.04 software. […]

The subject of data set [10] is PC-3 cells. Nature of the data set: Cell cycle assay (PI, flow cytometry). To be noted: 30 μM, 24 h. The class given is cell-based, human. As for the experimental part:
To analyze the effect of compound 8q on cell cycle, the cycle of PC-3 cells was detected after being treated with compound 8q for 24 h (Figure 5). […] In addition, Cyclin D1, a cell cycle-related protein, is a key regulator of cycle progression, mainly regulating G1/S phase transition. […] In summary, compound 8q can arrest cells in the G0/G1 phase. […]
2.5. Cell cycle arrest of compound 8q on PC-3
To determine the effect of compound 8q on the cell cycle distribution of PC-3 cell, we used our previous method with slight modifications2. Briefly, cells were incubated in a six-well plate with a density of 3 × 105 at 37 ℃ and 5% CO2 for 24 h, followed by the addition of different concentrations of compound 8q for further incubation for 24 h.
Next, the cells were collected and washed twice with PBS. 75% anhydrous ethanol was used to immobilize the cells under overnight conditions at 4 ℃. Subsequently, PBS washed cells, and RNase from the cell cycle assay kit (Solarbio, Beijing, China) was added and incubated in a constant temperature (37 ℃) water bath for 30 min. Then PI was added under dark conditions and incubated at 4 ℃ for another half hour to detect.
as §4

[11] abbreviates: Homo sapiens, read-out: Inhibitory Activity/% at 10 μM, PC-3, Table 2 (8 series), 10 μM, average of three replicates, "/" means no anticancer activity.
Setting [12] is: A549, read-out: Inhibitory Activity/% at 10 μM, A549.
Setting [13] is: read-out: Inhibitory Activity/% at 10 μM, T47D.
Where [14] appears, read: Homo sapiens, read-out: Inhibitory Activity/% at 10 μM, PC-3, Table 1 (7 series), 10 μM, average of three replicates, "/" means no anticancer activity.

Regarding `COc1cc(-c2nc(-c3nnc(SCC(=O)N4CCN(c5ncccn5)CC4)o3)cc3c2[nH]c2ccccc23)cc(OC)c1OC` [Compound 8g], the IC50 (usually the concentration at which inhibition is half-maximal) was less than 10 µM in [1] (Homo sapiens, read-out: IC50 (Mean ± S.D.), PC-3, average of three replicates); 9.56 ± 1.43 µM in data set [1] (read-out: IC50 (Mean ± S.D.), PC-3, average of three replicates); greater than 40 µM in data set [2]; greater than 40 µM in [3] (K562, read-out: IC50 (Mean ± S.D.), K562, average of three replicates); greater than 40 µM in [4]. Also, the inhibition at 10 µM in data set [1] (setting [11]) came out at 45.4 ± 0.82%; in data set [2] (setting [12]), 35.8 ± 1.17%; in [3] it was 6.38 ± 0.52%; in data set [4] (setting [13]), 40.6 ± 4.48%; in data set [5], 29 ± 4.56%. In addition, the “Precipitation observed under microscopy” value in data set [6] was “precipitate crystals”.
Turning to `COc1cc(-c2nc(-c3nnc(SCC(=O)N4CCOc5ccccc54)o3)cc3c2[nH]c2ccccc23)cc(OC)c1OC` [Compound 8n], the melting point (as a rule, the temperature, or range, at which the solid turns liquid) lay in the range of 225.9 to 226.8 °C. For the same molecule, in data set [1] (setting [11]), the inhibition at 10 µM was determined as 32 ± 1.17%. Moreover, in data set [2] (setting [12]), the inhibition at 10 µM came to 7.62 ± 3.84%. For the same molecule, in data set [3], the inhibition at 10 µM came out at 38.2 ± 3.73%. The inhibition at 10 µM in [4] (setting [13]) was 25.6 ± 3.79%. In addition, the inhibition at 10 µM in [5] worked out at 35.5 ± 1.75%.
`O=C(CSc1nnc(-c2cc3c(cn2)[nH]c2ccccc23)o1)N1CCN(c2ccc(C(F)(F)F)cn2)CC1` [Compound 7r]: the melting point was in the range of 300.7 to 302.9 °C. The inhibition at 10 µM in data set [1] (setting [14]) came out at 44 ± 2.62%. Also, the inhibition at 10 µM in [2] (setting [12]) amounted to 3.03 ± 5.83%. Also, in data set [3], the inhibition at 10 µM is 17.2 ± 2.35%. Further, the inhibition at 10 µM in data set [4] (setting [13]) came out at 38.4 ± 5.85%. The inhibition at 10 µM in data set [5] amounted to 0.74 ± 3.77%.
Turning to `O=C(CSc1nnc(-c2cc3c(cn2)[nH]c2ccccc23)o1)N1CCN(c2ccc(Cl)cc2)CC1` [Compound 7e], the melting point is 246.4 to 248.3 °C. In data set [1] (setting [14]), the inhibition at 10 µM is 25 ± 4.06%. In addition, in data set [2] (setting [12]), the inhibition at 10 µM is 18 ± 2.06%. Besides, in [3], the inhibition at 10 µM is 12.7 ± 4.72%. The inhibition at 10 µM in data set [4] (setting [13]) was found to be 47.7 ± 3.36%. The inhibition at 10 µM in data set [5] was 26.4 ± 1.35%.
In turn, `O=C(CSc1nnc(-c2cc3c(cn2)[nH]c2ccccc23)o1)Nc1ccc(F)cc1` [Compound 7k] displayed a melting point of 296.4 to 297.9 °C. In addition, the inhibition at 10 µM in data set [1] (setting [14]) is 35.8 ± 4.09%. Further, in [2] (setting [12]), the inhibition at 10 µM came to 10.1 ± 6.19%. Also, the inhibition at 10 µM in data set [3] came to 12.2 ± 0.18%. Moreover, the inhibition at 10 µM in [4] (setting [13]) is 47.5 ± 1.39%. In data set [5], the inhibition at 10 µM was determined as 30.8 ± 2.59%.
With `O=C(CSc1nnc(-c2cc3c(cn2)[nH]c2ccccc23)o1)N1CCOc2ccccc21` [Compound 7n], the melting point was 232.4 to 232.8 °C. Besides, the inhibition at 10 µM in [1] (setting [14]) worked out at 36 ± 3.68%. Besides, the inhibition at 10 µM in data set [2] (setting [12]) amounted to 8.72 ± 2.57%. In addition, the inhibition at 10 µM in data set [3] came out at 35.1 ± 3.12%. In data set [4] (setting [13]), the inhibition at 10 µM came to 47.8 ± 0.82%. For the same molecule, the inhibition at 10 µM in [5] was 61.8 ± 1.57%.
For `COc1ccc2c(c1)[nH]c1c(C)nccc12` [Harmine, reference compound], in the data set with PC-3 cells [7], the “Migration rate of PC-3 cells” value was determined as 21.51%. The “Total apoptosis rate in PC-3 cells” value in the data set on PC-3 cells [8] (48 h) amounted to 65.96%. Further, the “Annexin V-FITC/PI flow cytometry quadrant Q1” value in the data set with PC-3 cells [8] (Figure 4A) was 0.21. Moreover, the “Annexin V-FITC/PI flow cytometry quadrant Q2” value in the data set with PC-3 cells [8] (Figure 4A) is reported as 35.4. Besides, the “Annexin V-FITC/PI flow cytometry quadrant Q3” value in the data set on PC-3 cells [8] (Figure 4A) was determined as 34.2. Besides, the “Annexin V-FITC/PI flow cytometry quadrant Q4” value in the data set with PC-3 cells [8] (Figure 4A) was determined as 30.2. In addition, the “ROS mean fluorescence intensity (MFI) value” in the data set on PC-3 cells [9] is listed as 37.9. Also, the “Cell cycle distribution, S phase” value with PC-3 cells [10] (negative control 20.8%) came out at 26.4%. Also, the “Cell cycle distribution, G2/M phase” value in the data set on PC-3 cells [10] (negative control 23.6%) is 49.0%. For the same molecule, in the data set with PC-3 cells [10] (negative control 50.6%), the “Cell cycle distribution, G0/G1 phase” value was found to be 17.3%. The IC50 came to 24.4 ± 4.45 µM in data set [1] (Homo sapiens, read-out: IC50 (Mean ± S.D.), PC-3); 25.9 ± 4.78 µM in data set [2]; 15.7 ± 2.27 µM in data set [3] (K562, read-out: IC50 (Mean ± S.D.), K562); 38.5 ± 1.17 µM in data set [4]. Further, the inhibition at 10 µM in data set [1] (Homo sapiens, read-out: Inhibitory Activity/% at 10 μM, PC-3) came out at 14.5 ± 1.42%; in data set [2] (A549, read-out: Inhibitory Activity/% at 10 μM, A549, Table 1 (7 series), 10 μM, average of three replicates, "/" means no anticancer activity), 31 ± 2.81%; in data set [2] (A549, read-out: Inhibitory Activity/% at 10 μM, A549, Table 2 (8 series), 10 μM, average of three replicates, "/" means no anticancer activity), 31.2 ± 2.67%; in [3], 36 ± 2.77%; in data set [4] (read-out: Inhibitory Activity/% at 10 μM, T47D, Table 1 (7 series), 10 μM, average of three replicates, "/" means no anticancer activity), 51.3 ± 4.58%; in data set [4] (read-out: Inhibitory Activity/% at 10 μM, T47D, Table 2 (8 series), 10 μM, average of three replicates, "/" means no anticancer activity) it was 48.8 ± 2.37%. Moreover, in data set [5], the inhibition at 10 µM worked out at 29.1 ± 3.19%.
For the molecule `COc1cc(-c2nc(-c3nnc(SCC(=O)N4CCN(c5ccc(F)cc5)CC4)o3)cc3c2[nH]c2ccccc23)cc(OC)c1OC` [Compound 8d], the melting point lay in the range of 156.8 to 158.1 °C. Further, the inhibition at 10 µM in data set [1] (setting [11]) is 17.9 ± 2.8%. The inhibition at 10 µM in data set [2] (setting [12]) came out at 10.1 ± 4.44%. Also, the inhibition at 10 µM in [3] came out at 8.62 ± 5.59%. Also, the inhibition at 10 µM in [4] (setting [13]) was less than 0%. Besides, the inhibition at 10 µM in [5] turned out to be 36.9 ± 2.63%.
